Test results reported in PubChem BioAssay (NCI).
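Assay format: 96-well plates, 48-hour exposure. Here, GI50 denotes the concentration required for 50% inhibition of growth. TGI: concentration producing complete growth inhibition.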

Columns and labels:
Assay in all cases: growth of human tumour cells (NCI), 48 h; in the data active = GI50 below about 0.43 µM; inactive = the rest
HL-60(TB) leukemia = tested on: HL-60(TB) leukemia
786-0 renal = tested on: 786-0 renal
A549 NSCLC = tested on: A549 NSCLC
T-47D breast = tested on: T-47D breast
HCT-15 colon = tested on: HCT-15 colon
SW-620 colon = tested on: SW-620 colon
UACC-62 melanoma = tested on: UACC-62 melanoma
HCT-116 colon = tested on: HCT-116 colon
UO-31 renal = tested on: UO-31 renal
HOP-62 NSCLC = tested on: HOP-62 NSCLC
M14 melanoma = tested on: M14 melanoma
SF-295 CNS = tested on: SF-295 CNS
U251 CNS = tested on: U251 CNS
MDA-MB-231 breast = tested on: MDA-MB-231 breast
MDA-MB-435 = tested on: MDA-MB-435
NCI-H23 lung = tested on: NCI-H23 lung
SK-MEL-2 melanoma = tested on: SK-MEL-2 melanoma
A498 renal = tested on: A498 renal
IGROV1 ovarian = tested on: IGROV1 ovarian
NCI-H226 lung = tested on: NCI-H226 lung
MOLT-4 leukemia = tested on: MOLT-4 leukemia
ACHN renal = tested on: ACHN renal
LOX IMVI melanoma = tested on: LOX IMVI melanoma
SK-MEL-28 melanoma = tested on: SK-MEL-28 melanoma
HT29 colon = tested on: HT29 colon
MCF7 breast = tested on: MCF7 breast
TK-10 renal = tested on: TK-10 renal
SF-539 CNS = tested on: SF-539 CNS
SK-MEL-5 melanoma = tested on: SK-MEL-5 melanoma
CAKI-1 renal = tested on: CAKI-1 renal
PC-3 prostate = tested on: PC-3 prostate
OVCAR-3 ovarian = tested on: OVCAR-3 ovarian
COLO 205 colon = tested on: COLO 205 colon
HS 578T breast = tested on: HS 578T breast
OVCAR-8 ovarian = tested on: OVCAR-8 ovarian
OVCAR-5 ovarian = tested on: OVCAR-5 ovarian
CCRF-CEM leukemia = tested on: CCRF-CEM leukemia
SK-OV-3 ovarian = tested on: SK-OV-3 ovarian
SN12C renal = tested on: SN12C renal
HCC-2998 colon = tested on: HCC-2998 colon
OVCAR-4 ovarian = tested on: OVCAR-4 ovarian
NCI-H460 lung = tested on: NCI-H460 lung
RXF 393 renal = tested on: RXF 393 renal
HOP-92 NSCLC = tested on: HOP-92 NSCLC
SR leukemia = tested on: SR leukemia
EKVX NSCLC = tested on: EKVX NSCLC
KM12 colon = tested on: KM12 colon
SNB-19 CNS = tested on: SNB-19 CNS
NCI/ADR-RES ovarian = tested on: NCI/ADR-RES ovarian
MALME-3M melanoma = tested on: MALME-3M melanoma
UACC-257 melanoma = tested on: UACC-257 melanoma
K-562 leukemia = tested on: K-562 leukemia
RPMI-8226 leukemia = tested on: RPMI-8226 leukemia
DU-145 prostate = tested on: DU-145 prostate
SNB-75 CNS = tested on: SNB-75 CNS
NCI-H522 lung = tested on: NCI-H522 lung
SF-268 CNS = tested on: SF-268 CNS
BT-549 breast = tested on: BT-549 breast

O=C(Nc1n[nH]c2nnc(-c3cccnc3)cc12)C1CC1
active: GI50 (SF-295 CNS) 0.338 µM | GI50 (A498 renal) 0.051 µM | GI50 (OVCAR-3 ovarian) 0.114 µM | GI50 (HS 578T breast) 0.0833 µM | GI50 (SNB-75 CNS) 0.141 µM
> 22.6 µM: TGI (HL-60(TB) leukemia)
> 9.38 µM: TGI (HS 578T breast)
> 19.5 µM: TGI (HCT-116 colon)
0.17 µM: TGI (A498 renal)
> 20.1 µM: TGI (KM12 colon)
> 17.9 µM: TGI (RXF 393 renal)
inactive: GI50 (HL-60(TB) leukemia) > 13.6 µM | GI50 (786-0 renal) 3.65 µM | GI50 (A549 NSCLC) > 20.7 µM | GI50 (T-47D breast) > 12.9 µM | GI50 (HCT-15 colon) > 20.3 µM | GI50 (SW-620 colon) 8.97 µM | GI50 (UACC-62 melanoma) 7.37 µM | GI50 (HCT-116 colon) 4.47 µM | GI50 (UO-31 renal) 1.65 µM | GI50 (HOP-62 NSCLC) 10.1 µM | GI50 (M14 melanoma) > 16.1 µM | GI50 (U251 CNS) 1.06 µM | GI50 (MDA-MB-435) > 11.3 µM | GI50 (NCI-H23 lung) > 15.9 µM | GI50 (SK-MEL-2 melanoma) 21.8 µM | GI50 (IGROV1 ovarian) > 11.7 µM | GI50 (NCI-H226 lung) 2.7 µM | GI50 (MOLT-4 leukemia) 4.88 µM | GI50 (ACHN renal) 3.88 µM | GI50 (LOX IMVI melanoma) 6.99 µM | GI50 (SK-MEL-28 melanoma) > 16.9 µM | GI50 (HT29 colon) 4.76 µM | GI50 (MCF7 breast) 1.07 µM | GI50 (SF-539 CNS) 2.79 µM | GI50 (SK-MEL-5 melanoma) 4.61 µM | GI50 (CAKI-1 renal) 3.87 µM | GI50 (PC-3 prostate) 6.44 µM | GI50 (COLO 205 colon) 7.45 µM | GI50 (OVCAR-8 ovarian) 7.65 µM | GI50 (OVCAR-5 ovarian) > 17.8 µM | GI50 (CCRF-CEM leukemia) 7.05 µM | GI50 (SK-OV-3 ovarian) 0.621 µM | GI50 (SN12C renal) > 11.7 µM | GI50 (HCC-2998 colon) 8.95 µM | GI50 (OVCAR-4 ovarian) 7.66 µM | GI50 (NCI-H460 lung) 8.13 µM | GI50 (RXF 393 renal) 0.428 µM | GI50 (HOP-92 NSCLC) > 25 µM | GI50 (SR leukemia) 6.23 µM | GI50 (EKVX NSCLC) > 20.9 µM | GI50 (KM12 colon) 5.22 µM | GI50 (SNB-19 CNS) > 11.9 µM | GI50 (NCI/ADR-RES ovarian) > 25 µM | GI50 (MALME-3M melanoma) > 25 µM | GI50 (UACC-257 melanoma) > 17.4 µM | GI50 (K-562 leukemia) 1.74 µM | GI50 (RPMI-8226 leukemia) > 25 µM | GI50 (DU-145 prostate) > 13.4 µM | GI50 (NCI-H522 lung) > 5.13 µM | GI50 (SF-268 CNS) > 11.8 µM | GI50 (BT-549 breast) 10.8 µM
> 7.49 µM: TGI (SF-295 CNS)
> 18.4 µM: TGI (OVCAR-3 ovarian)
> 13.9 µM: TGI (NCI-H226 lung)
> 25 µM: TGI (786-0 renal) | TGI (A549 NSCLC) | TGI (T-47D breast) | TGI (HCT-15 colon) | TGI (SW-620 colon) | TGI (UACC-62 melanoma) | TGI (HOP-62 NSCLC) | TGI (M14 melanoma) | TGI (U251 CNS) | TGI (MDA-MB-231 breast) | TGI (MDA-MB-435) | TGI (NCI-H23 lung) | TGI (SK-MEL-2 melanoma) | TGI (IGROV1 ovarian) | TGI (MOLT-4 leukemia) | TGI (ACHN renal) | TGI (LOX IMVI melanoma) | TGI (SK-MEL-28 melanoma) | TGI (HT29 colon) | TGI (MCF7 breast) | TGI (TK-10 renal) | TGI (SK-MEL-5 melanoma) | TGI (CAKI-1 renal) | TGI (PC-3 prostate) | TGI (COLO 205 colon) | TGI (OVCAR-8 ovarian) | TGI (OVCAR-5 ovarian) | TGI (CCRF-CEM leukemia) | TGI (SK-OV-3 ovarian) | TGI (SN12C renal) | TGI (HCC-2998 colon) | TGI (OVCAR-4 ovarian) | TGI (NCI-H460 lung) | TGI (HOP-92 NSCLC) | TGI (SR leukemia) | TGI (EKVX NSCLC) | TGI (SNB-19 CNS) | TGI (NCI/ADR-RES ovarian) | TGI (MALME-3M melanoma) | TGI (UACC-257 melanoma) | TGI (K-562 leukemia) | TGI (RPMI-8226 leukemia) | TGI (DU-145 prostate) | TGI (SNB-75 CNS) | TGI (NCI-H522 lung) | TGI (SF-268 CNS) | TGI (BT-549 breast)
> 20.3 µM: TGI (UO-31 renal)
> 20.8 µM: TGI (SF-539 CNS)
